The results in this text go back to patent US20080085886A1, “Aza-benzofuranyl compounds and methods of use” (GENENTECH, INC., priority 2006, published 2008).

The test system of test [1] is cellular p-ERK in HCT116 human colorectal carcinoma / A375 human malignant melanoma cell lines. The test can be described thus: Phospho-ERK cell-based assay (ELISA), Example 4. The note with it: in either one of the cell lines (HCT116, A375), 2 h or 24 h exposure. The protocol: Example 4 Phospho-ERK Cell-Based Assay
Compounds are tested in a cell-based phospho-ERK ELISA using the following cell lines:
HCT116 human colorectal carcinoma (ATCC)
(§1) A375 human malignant melanoma (ATCC)
(§2) Both cell lines are maintained in DMEM/F12 (1:1) media (Gibco) supplemented with 10% FCS at 37° C. in a 5% CO2 humidified incubator.
Cells are seeded in 96-well plates at 2,000 cells/well and after 24 h they are exposed to different concentrations of compounds in 0.83% DMSO. Cells are grown for a further 2 h or 24 h, fixed with formaldehyde (2% final) and permeabilised with methanol. Following blocking with TBST-3% BSA, fixed cells are incubated with primary antibody (anti-phospho ERK from rabbit) over-night at 4° C. Cells are incubated with Propidium Iodide (DNA fluorescent dye) and detection of cellular p-ERK is performed using an anti-rabbit secondary antibody conjugated to the fluorescent Alexa Fluor 488 dye (Molecular probes). The fluorescence is analysed using the Acumen Explorer (TTP Labtech), a laser-scanning microplate cytometer, and the Alexa Fluor 488 signal is normalised to the PI signal (proportional to cell number).
The EC50 is defined as the concentration at which a given compound achieves a signal half way between the baseline and the maximum response. EC50 values are calculated using the XLfit software package (version 2.0.5).

For test [2], the system named is HCT 116 human colorectal carcinoma / A375 human malignant melanoma cell lines. As to the kind of experiment: Cell proliferation assay (CellTiter-Glo), Example 3. The format is cell-based. The note with it: in either one of the cell lines (HCT 116, A375), 72 h. The protocol: Example 3 Cell Proliferation Assay
Compounds are tested in a cell proliferation assay using the following cell lines:
HCT 116 human colorectal carcinoma (ATCC)
as §1, §2
Cells are seeded in 96-well plates at 2,000 cells/well and after 24 hours they are exposed to different concentrations of compounds in 0.83% DMSO. Cells are grown for a further 72 h, and an equal volume of CellTiter-Glo reagent (Promega) is added to each well. This lyses the cells and generates a luminescent signal proportional to the amount of ATP released (and therefore proportional to the number of cells in the well) that can be detected using a multiwell luminometer.
EC50 values are calculated using the XLfit software package (version 2.0.5).

Structures can show the parent of a compound that is named as a salt.

For the compound `O=C(NOC[C@H](O)CO)c1oc2ccncc2c1Nc1cc(F)c(I)cc1F` [Example 15, 3-(2,5-Difluoro-4-iodo-phenylamino)-furo[3,2-c]pyridine-2-carboxylic acid ((R)-2,3-dihydroxy-propoxy)-amide], the EC50 in test [1] and in test [2] was < 10 µM in each case.

On to `O=C(NOC[C@@H]1CCCN1)c1oc2ccncc2c1Nc1ccc(I)cc1F` [Example 141, 3-(2-Fluoro-4-iodo-phenylamino)-furo[3,2-c]pyridine-2-carboxylic acid ((S)-1-pyrrolidin-2-ylmethoxy)-amide], for which the EC50 in test [1] and in test [2] was < 10 µM in each case. Turning to `CSc1ccc(Nc2c(C(=O)NOCCO)oc3ccncc23)c(F)c1` [Example 35, 3-(2-Fluoro-4-methylsulfanyl-phenylamino)-furo[3,2-c]pyridine-2-carboxylic acid (2-hydroxy-ethoxy)-amide], the EC50 in test [1] and in test [2] was < 10 µM throughout.

Consider `O=C(NOCCO)c1oc2c(Cl)cncc2c1Nc1ccc(I)cc1F` [Example 39, 7-Chloro-3-(2-fluoro-4-iodo-phenyl-amino)-furo[3,2-c]pyridine-2-carboxylic acid (2-hydroxy-ethoxy)-amide], for which the 50% effective concentration (EC50) in test [1] and in test [2] was < 10 µM throughout. `O=C(c1oc2ccncc2c1Nc1ccc(I)cc1F)N1C[C@H](O)[C@@H](O)[C@H]1CO` [Example 160, (3-(2-fluoro-4-iodophenylamino)furo[3,2-c]pyridin-2-yl)((2R,3S,4S)-3,4-dihydroxy-2-(hydroxymethyl)pyrrolidin-1-yl)methanone]: the EC50 in test [1] and in test [2] was < 10 µM in each case. As for `NC(=O)c1oc2ccncc2c1Nc1ccc(I)cc1F` [Example 21, 3-(2-Fluoro-4-iodo-phenylamino)-furo[3,2-c]pyridine-2-carboxylic acid amide], the concentration giving a half-maximal response (EC50) in test [1] and in test [2] was < 10 µM in each case.

Consider `O=C(NOC[C@H](O)CO)c1oc2ccncc2c1Nc1ccc(I)cc1` [Example 12, 3-(4-Iodo-phenylamino)-furo[3,2-c]pyridine-2-carboxylic acid ((R)-2,3-dihydroxy-propoxy)-amide], for which the concentration for a half-maximal effect (EC50) in test [1] and in test [2] was < 10 µM each time. For the compound `C#Cc1ccc(Nc2c(C(=O)NOC[C@H](O)CO)oc3ccncc23)c(F)c1` [Example 7, 3-(4-Ethynyl-2-fluoro-phenylamino)-furo[3,2-c]pyridine-2-carboxylic acid ((R)-2,3-dihydroxy-propoxy)-amide], the EC50 in test [1] and in test [2] was < 10 µM throughout. On to `O=C(NOC[C@H](O)CO)c1oc2ccncc2c1Nc1ccc(Br)cc1F` [Example 6, 3-(2-Fluoro-4-bromo-phenylamino)-furo[3,2-c]pyridine-2-carboxylic acid ((R)-2,3-dihydroxy-propoxy)-amide], for which the EC50 in test [1] and in test [2] was < 10 µM each time.

Turning to `O=C(NOC[C@H](O)CO)c1oc2ccncc2c1Nc1ccc(I)cc1Cl` [Example 13, 3-(2-Chloro-4-iodo-phenylamino)-furo[3,2-c]pyridine-2-carboxylic acid ((R)-2,3-dihydroxy-propoxy)-amide], the EC50 in test [1] and in test [2] was < 10 µM each time. For the compound `O=C(NOC1CCCNC1)c1oc2ccncc2c1Nc1ccc(I)cc1F` (stereo not shown) [Example 140, 3-(2-Fluoro-4-iodo-phenylamino)-furo[3,2-c]pyridine-2-carboxylic acid (piperdin-3-yloxy)-amide], the concentration for a half-maximal effect (EC50) in test [1] and in test [2] was < 10 µM throughout.

As for `O=C(NOC[C@H](O)CO)c1oc2ccncc2c1Nc1ccc(I)cc1F` [Example 5, 3-(2-Fluoro-4-iodo-phenylamino)-furo[3,2-c]pyridine-2-carboxylic acid ((R)-2,3-dihydroxy-propoxy)-amide], the EC50 in test [1] and in test [2] was < 10 µM in each case. Consider `O=C(NO[C@H]1CCNC1)c1oc2ccncc2c1Nc1ccc(I)cc1F` [Example 38, 3-(2-Fluoro-4-iodo-phenylamino)-furo[3,2-c]pyridine-2-carboxylic acid ((S)-pyrrolidin-3-yloxy)-amide mono formate salt], for which the concentration giving a half-maximal response (EC50) in test [1] and in test [2] was < 10 µM throughout. For the compound `O=C(NOC1CCNCC1)c1oc2ccncc2c1Nc1ccc(I)cc1F` [Example 20, 3-(2-Fluoro-4-iodo-phenylamino)-furo[3,2-c]pyridine-2-carboxylic acid (piperidin-4-yloxy)-amide mono formate salt], the concentration for a half-maximal effect (EC50) in test [1] and in test [2] was < 10 µM each time. `O=C(NOCCO)c1oc2ccncc2c1Nc1ccc(I)cc1F` [Example 10, 3-(2-Fluoro-4-iodo-phenylamino)-furo[3,2-c]pyridine-2-carboxylic acid (2-hydroxy-ethoxy)-amide]: the 50% effective concentration (EC50) in test [1] and in test [2] was < 10 µM throughout. Consider `CS(=O)(=O)NCCONC(=O)c1oc2ccncc2c1Nc1ccc(I)cc1F` [Example 109, 3-(2-Fluoro-4-iodo-phenylamino)-furo[3,2-c]pyridine-2-carboxylic acid (2-methanesulfonylamino-ethoxy)-amide], for which the EC50 in test [1] and in test [2] was < 10 µM in each case.

For the compound `O=C(c1oc2ccncc2c1Nc1ccc(I)cc1F)N1C[C@H](O)C[C@@H]1CO` [Example 126, (3-(2-fluoro-4-iodophenylamino)furo[3,2-c]pyridin-2-yl)((2R,4R)-4-hydroxy-2-(hydroxymethyl)pyrrolidin-1-yl)methanone], the EC50 in test [1] was < 10 µM. Same read-out and setting: then `O=C(c1oc2ccncc2c1Nc1ccc(I)cc1F)N1CCC[C@H]1CO` [Example 79, (3-(2-fluoro-4-iodophenylamino)furo[3,2-c]pyridin-2-yl)((S)-2-(hydroxymethyl)pyrrolidin-1-yl)methanone], with < 10 µM; and `O=C(NOCc1ccccc1)c1oc2ccncc2c1Nc1ccc(I)cc1F` [Example 44, (2-Fluoro-4-iodo-phenylamino)-N-benzyloxyfuro[3,2-c]pyridine-2-carboxamide], with < 10 µM; and `O=C(NOCCO)c1oc2c(F)cncc2c1Nc1ccc(I)cc1F` [Example 139, 7-Fluoro-3-(2-fluoro-4-iodo-phenylamino)-furo[3,2-c]pyridine-2-carboxylic acid (2-hydroxy-ethoxy)-amide], with < 10 µM.

As for `O=C(NCCCONC(=O)c1oc2ccncc2c1Nc1ccc(I)cc1F)c1ccncc1` [Example 48, (2-Fluoro-4-iodo-phenyl amino)-N-[3-(isonicotinamide)propoxy] furo[3,2-c]pyridine-2-carboxamide], the 50% effective concentration (EC50) in test [1] was < 10 µM.

On to `O=C(c1oc2ccncc2c1Nc1ccc(I)cc1F)N1CC[C@@H](O)[C@H]1CO` [Example 123], for which the EC50 in test [1] was < 10 µM. Still for that read-out and setting: then `O=C(c1oc2ccncc2c1Nc1ccc(I)cc1F)N1CC[C@H](O)[C@H]1CO` [Example 131, (3-(2-fluoro-4-iodophenylamino)furo[3,2-c]pyridin-2-yl)((2R,3S)-3-hydroxy-2-(hydroxymethyl)pyrrolidin-1-yl)methanone], with < 10 µM. Same read-out and setting: then `Cc1nccc2oc(C(=O)NOCCO)c(Nc3ccc(I)cc3F)c12` [Example 144, 3-(2-Fluoro-4-iodo-phenylamino)-methyl-furo[3,2-c]pyridine-2-carboxylic acid (2-hydroxy-ethoxy)-amide], with < 10 µM. On the same count and under the same terms, under `O=C(NOCCCO)c1oc2ccncc2c1Nc1ccc(I)cc1F` [Example 45, (2-Fluoro-4-iodo-phenyl amino)-N-(3-hydroxypropoxy)furo[3,2-c]pyridine-2-carboxamide] stands < 10 µM; under `O=C(NCCCONC(=O)c1oc2ccncc2c1Nc1ccc(I)cc1F)c1cccnc1` [Example 47], < 10 µM; under `O=C(NC(CO)CO)c1oc2ccncc2c1Nc1ccc(I)cc1F` [Example 68, 3-(2-fluoro-4-iodophenylamino)-N-(1,3-dihydroxypropan-2-yl)furo[3,2-c]pyridine-2-carboxamide], < 10 µM.

Consider `O=C(c1oc2c(F)cncc2c1Nc1ccc(I)cc1F)N1C[C@H](O)[C@@H](O)C1` [Example 158, ((3S,4S)-3,4-Dihydroxy-pyrrolidin-1-yl)-[7-fluoro-3-(2-fluoro-4-iodo-phenylamino)-furo[3,2-c]pyridin-2-yl]-methanone], for which, in test [1], the EC50 was < 10 µM. For `O=C(c1oc2ccncc2c1Nc1ccc(I)cc1F)N1CC(O)C1` [Example 122, (3-(2-fluoro-4-iodophenylamino)furo[3,2-c]pyridin-2-yl)(3-hydroxyazetidin-1-yl)methanone], in test [1], the EC50 was < 10 µM. Still for that read-out and setting: under `O=C(NOCCO)c1oc2ccnc(Cl)c2c1Nc1ccc(I)cc1F` [Example 147, 4-Chloro-3-(2-fluoro-4-iodo-phenylamino)-furo[3,2-c]pyridine-2-carboxylic acid (2-hydroxy-ethoxy)-amide] stands < 10 µM.
